Source: ChEMBL document CHEMBL4265881, “Synthesis and bioactivity of 3,5-dimethylpyrazole derivatives as potential PDE4 inhibitors” (Bioorg Med Chem Lett, 2018)

What was measured:
[1] = biological target: 3',5'-cyclic-AMP phosphodiesterase 4B (Homo sapiens, UniProt Q07343); experiment: Inhibition of human U937 cells-derived PDE4B using [3H]-cAMP as substrate measured after 30 mins
[2] = Inhibition of PDE4 in human PBMC assessed as reduction in LPS-stimulated TNFalpha release preincubated for 30 mins followed by LPS stimulation for 18 hrs by TR-FRET assay; format: cell-based
[3] = tested on: Rattus norvegicus; experiment: Anti-inflammatory activity in Sprague-Dawley rat model of LPS-induced asthma/COPD assessed as inhibition of neutrophilia in BALF at 10 mg/kg, po; format: functional
[4] = biological target: 3',5'-cyclic-AMP phosphodiesterase 4D (Homo sapiens, UniProt Q08499); experiment: Inhibition of human U937 cells-derived PDE4D using [3H]-cAMP as substrate measured after 30 mins
3',5'-cyclic-AMP phosphodiesterase 4D, sequence (Q08499 whole entry): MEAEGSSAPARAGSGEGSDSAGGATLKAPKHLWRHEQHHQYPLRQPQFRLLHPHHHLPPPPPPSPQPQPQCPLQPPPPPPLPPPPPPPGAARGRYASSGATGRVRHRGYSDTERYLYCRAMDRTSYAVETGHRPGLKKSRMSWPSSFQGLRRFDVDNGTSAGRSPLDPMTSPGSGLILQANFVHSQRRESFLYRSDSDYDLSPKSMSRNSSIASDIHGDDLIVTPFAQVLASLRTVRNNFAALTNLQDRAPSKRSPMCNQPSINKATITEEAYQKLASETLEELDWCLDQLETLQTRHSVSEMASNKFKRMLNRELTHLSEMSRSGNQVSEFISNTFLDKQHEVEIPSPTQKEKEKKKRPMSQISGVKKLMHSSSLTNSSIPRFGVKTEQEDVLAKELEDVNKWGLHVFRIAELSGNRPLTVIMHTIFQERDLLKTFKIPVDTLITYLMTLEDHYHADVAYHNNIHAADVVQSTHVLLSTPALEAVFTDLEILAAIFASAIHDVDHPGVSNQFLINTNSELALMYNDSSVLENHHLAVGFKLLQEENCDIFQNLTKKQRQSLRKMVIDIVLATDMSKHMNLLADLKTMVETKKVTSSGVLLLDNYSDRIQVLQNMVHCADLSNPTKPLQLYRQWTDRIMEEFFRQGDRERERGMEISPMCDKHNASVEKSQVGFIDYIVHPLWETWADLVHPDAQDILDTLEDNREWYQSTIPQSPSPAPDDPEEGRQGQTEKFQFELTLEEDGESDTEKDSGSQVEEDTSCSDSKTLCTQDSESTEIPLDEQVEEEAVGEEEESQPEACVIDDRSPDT

[5] = tested on: Mus musculus; experiment: Anti-inflammatory activity in Swiss albino mouse model of sepsis assessed as inhibition of LPS-induced TNFalpha release at 10 mg/kg, po; format: functional

3',5'-cyclic-AMP phosphodiesterase 4B, sequence (Q07343 whole entry): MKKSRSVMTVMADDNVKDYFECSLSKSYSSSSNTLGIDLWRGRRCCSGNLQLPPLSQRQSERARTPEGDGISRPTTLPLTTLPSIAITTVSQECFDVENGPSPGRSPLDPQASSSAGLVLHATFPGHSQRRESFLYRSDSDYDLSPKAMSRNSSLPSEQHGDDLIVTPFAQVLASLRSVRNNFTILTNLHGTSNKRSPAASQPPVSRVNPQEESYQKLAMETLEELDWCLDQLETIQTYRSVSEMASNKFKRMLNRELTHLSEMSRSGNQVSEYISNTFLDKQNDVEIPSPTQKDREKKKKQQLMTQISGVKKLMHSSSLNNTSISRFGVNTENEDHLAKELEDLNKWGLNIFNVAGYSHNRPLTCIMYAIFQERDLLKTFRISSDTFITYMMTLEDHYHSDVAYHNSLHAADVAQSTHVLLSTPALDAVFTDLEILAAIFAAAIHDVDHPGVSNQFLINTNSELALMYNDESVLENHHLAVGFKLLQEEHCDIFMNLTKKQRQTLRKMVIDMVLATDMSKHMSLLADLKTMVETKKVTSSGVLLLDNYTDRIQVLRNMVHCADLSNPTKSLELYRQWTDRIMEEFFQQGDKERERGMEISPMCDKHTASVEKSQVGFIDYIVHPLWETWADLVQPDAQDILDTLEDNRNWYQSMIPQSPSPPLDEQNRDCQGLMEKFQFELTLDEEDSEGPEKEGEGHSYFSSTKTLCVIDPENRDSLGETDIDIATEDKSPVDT

Compound | IC50 [1] [µM] | IC50 [2] [µM] | IC50 [4] [µM] | inhibition in vivo at 10 mg/kg [3] [%] | inhibition in vivo at 10 mg/kg [5] [%]
COc1ccc(-c2ccc(C(=O)n3nc(C)cc3C)o2)cc1 | 1.7 | 10.4 | 9.6 | 36.5 | 43.1
Cc1cc(C)n(C(=O)c2ccc(-c3ccc(Cl)cc3)o2)n1 | 3.9 | 25.1 | 26.4 |  | 
Cc1cc(C)n(C(=O)c2ccc(-c3c(F)cccc3F)o2)n1 | 14.5 | 88.7 | 88.2 |  | 
Cc1cc(C)n(C(=O)c2ccc(-c3ccc(F)cc3F)o2)n1 | 3.2 | 19.2 | 19.6 | 24.2 | 29.6
Cc1cc(C)n(C(=O)c2ccc(-c3ccccc3F)o2)n1 | 45.3 | 98.2 |  |  | 
Cc1ccc(-c2ccc(C(=O)n3nc(C)cc3C)o2)cc1 | 8.4 | 37.1 | 52.9 |  | 
COc1ccc(C2CNC(=O)C2)cc1OC1CCCC1 (centres undefined) [ROLIPRAM] |  | 16.5 |  | 32.8 | 41.7

The remaining compounds from weak to strong by IC50 [2], led by results:

IC50 [1] [µM] | IC50 [2] [µM] | IC50 [4] [µM] | Compound | inhibition in vivo at 10 mg/kg [3] [%] | inhibition in vivo at 10 mg/kg [5] [%]
70.3 | 178 |  | Cc1cc(C)n(C(=O)c2ccc(-c3ccccc3)o2)n1 |  | 
62.7 | 168 |  | Cc1cc(C)n(C(=O)c2ccc(-c3ccccc3[N+](=O)[O-])o2)n1 |  | 
51.1 | 154 |  | Cc1cc(C)n(C(=O)c2ccc(-c3ccc(Br)cc3)o2)n1 |  | 
52.4 | 112 |  | Cc1cc(C)n(C(=O)c2ccc(-c3ccccc3Cl)o2)n1 |  | 
20.2 | 70.8 |  | Cc1cc(C)n(C(=O)c2ccc(-c3cccc(F)c3)o2)n1 |  | 
35.9 | 69.3 |  | Cc1cc(C)n(C(=O)c2ccc(-c3cccc([N+](=O)[O-])c3)o2)n1 |  | 
20.9 | 58.4 |  | Cc1cc(C)n(C(=O)c2ccc(-c3cccc(Cl)c3)o2)n1 |  | 
15.4 | 41.7 | 87.3 | Cc1cc(C)n(C(=O)c2ccc(-c3ccc([N+](=O)[O-])cc3)o2)n1 |  | 
7.2 | 24.3 | 49.3 | Cc1cc(C)n(C(=O)c2ccc(-c3ccc(F)cc3)o2)n1 |  | 
